Experiments:
human macrophages = assay: Human macrophage cell culture assay, surface marker expression (MFI) by flow cytometry; assay type: cell-based; settings: MAD-PAC3.5 or equal molar equivalent concentration of free paclitaxel; vs no drug control
Procedure: In this assay, human peripheral blood monocytes (hPBMCs) were incubated for five days in RPMI+10% FBS+1x Penicillin/Streptomycin/L-glutamine+5Ong/mlGM-CSF (complete medium) at a concentration of 500,000 monocytes per well in 48 well tissue culture plates. […] GM-CSF induces the macrophages to adopt an activated phenotype that is intermediate between the extremes of M1 or M2. […] Saline and Vehicle (MAD without a drug payload, 23.3 μg/ml) were added as alternative supplements to other cultures as negative controls. The macrophage cell cultures were incubated with the supplemented complete medium for 24 hours after which it was removed and replaced with fresh complete medium. The macrophage cultures were then incubated for an additional three days. The three-day post treatment incubation was performed to permit assessment of durable changes in macrophage phenotypes.
After the additional three-day incubation in fresh complete medium, the cells were harvested and evaluated by flow cytometry for viability (DAPI) or expression of macrophage surface markers. These markers are representative of markers that are frequently considered as indicative of either M1-like or M2-like phenotypes or are known immune checkpoint receptors. The evaluated cell surface markers included CD206, CD163, CD80, CD86, MHC1, MHC2, SIRPa, and PD-1 using antibodies specific for each marker. […] The outputs of the flow cytometry assays were mean fluorescent intensities (MFI). Macrophages differentiated from monocytes collected from three separate donors were evaluated for all treatments. For each donor's macrophages, all experiments were run in triplicate.

CT26 cells = assay: CT26/Balb-c syngeneic mouse tumor model; assay type: in vivo; settings: intravenous injections on treatment days 1, 4, 7 and 11; MAD-PAC3.5 127 μg/injection, free paclitaxel molar equivalent
Procedure: Mice were implanted with CT26 cells that were permitted to grow and become established until they had attained tumor volumes of 80-100 mm 3. Tumor bearing mice (n=10/treatment group) were administered test articles by intravenous injections on 4 days (treatment days, 1, 4, 7, and 11). […] Tumor volumes were measured and recorded at regular intervals.

CC(=O)O[C@H]1C(=O)[C@@]2(C)[C@H]([C@H](OC(=O)c3ccccc3)[C@]3(O)C[C@H](OC(=O)[C@H](O)[C@@H](NC(=O)c4ccccc4)c4ccccc4)C(C)=C1C3(C)C)[C@]1(OC(C)=O)CO[C@@H]1C[C@@H]2O [free paclitaxel, paclitaxel]
expression of CD80 (human macrophages): increased the expression
expression of CD86 (human macrophages): increased the expression
expression of CD163 (human macrophages): modestly increased expression
expression of CD206 (human macrophages): modestly increased expression
expression of MHC1 (human macrophages): not significantly altered
expression of MHC2 (human macrophages): not significantly altered
expression of PD1 (human macrophages): not by free paclitaxel
expression of SIRPa (human macrophages): not significantly altered
mean tumor volume on treatment day 14 compared to saline (CT26 cells): modestly decreased mean tumor volumes

Reference: patent US20240024491A1, “MANNOSYLATED AMINE DEXTRAN DRUG DELIVERY VEHICLES WITH DEGRADABLE DISULFIDE/CARBONATE LINKERS TARGETING PAYLOADS TO CD206 EXPRESSING CELLS” (Navidea Biopharmaceuticals, Inc., priority 2022, published 2024)
